Measurements as given in paper PMC5133935, “Hydrostatin-TL1, an Anti-Inflammatory Active Peptide from the Venom Gland of Hydrophis cyanocinctus in the South China Sea” (International Journal of Molecular Sciences, 2016).
“Also recorded” adds a separate entry of the source. No end group written: not given here.

Legend:
[1] = system: HEK-293 cells, TNF-α-mediated NF-κB and MAPKs signaling; assay: Western blot, TNF-α-induced phosphorylation in HEK-293 cells; type: cell-based, human; details: TNF-α 20 ng/mL, 10 min
Source text: The NF-κB and MAPKs pathways are key signaling pathways of TNF-α-mediated inflammation. Therefore, we analyzed the mechanisms underlying H-TL1-induced inhibition of TNF-α-mediated inflammation by Western blotting in HEK-293 cells. […] To identify the specific effects of H-TL1 on TNF-α downstream signaling, we induced IL-1β as a potent activator of NF-κB that is specific to that pathway.
The H. cyanocinctus specimens were captured during September 2005 in the South China Sea near Guangdong Province, People’s Republic of China. After collection, the snakes were killed, and the venom glands were isolated and immediately frozen in liquid nitrogen until use. HEK-293 human embryonic kidney and L929 mouse fibroblast cell lines were obtained from ATCC and cultured in Dulbecco’s modified Eagle’s medium (DMEM, Sigma-Aldrich, St. Louis, MO, USA) containing 10% (v/v) heat-inactivated fetal bovine serum (FBS, Gibco, BRL, Grand Island, NY, USA) at 37 °C in an atmosphere of 5% CO2. The BLT5403 E. coli strain (used as the phage host strain) was from Novagen (Merck) and was cultured at 37 °C for propagation. The specific pathogen-free (SPF) male BALB/c and C57BL/6 mice (both 6–8 weeks old), weighing 20 ± 2 g were purchased from Shanghai SLAC Laboratory Animal Co., Ltd. (Shanghai, China). The mice were housed in animal facilities with 50% humidity under a 12-h light-dark cycle, fed a standard pellet diet, and provided with tap water ad libitum. The animal experimental protocols in this research, including venom gland isolation and the mouse study, were approved by the Animal Care and Use Committee of the Second Military Medical University.
For Western blotting, the cell or tissue specimen extracts were resolved in a 10% SDS-PAGE gel, and then the separated proteins were transferred to a nitrocellulose filter membrane. The antigens were detected by using specific antibodies against total and phosphorylated IκB, p38, ERK, and JNK followed by incubation with the respective secondary antibodies. GAPDH was simultaneously detected as the control to compare the protein loading in each lane. The mouse monoclonal anti-IκB, mouse monoclonal anti-p-IκB (Ser32/36), rabbit monoclonal anti-ERK, and rabbit monoclonal anti-p-ERK (Thr202/Tyr204) antibodies were from Cell Signaling Technologies (Beverly, MA, USA). The mouse polyclonal anti-p-p38 (Thr180/Tyr182), rabbit polyclonal anti-p38, rabbit monoclonal anti-p-JNK (Thr183/Tyr185), and mouse monoclonal anti-JNK antibodies were from Thermo Fisher Scientific (Rockford, IL, USA). The rabbit monoclonal anti-GAPDH antibody was from Santa Cruz Biotechnology (Santa Cruz, CA, USA), and the fluorescent-labeled secondary antibodies were from Li-COR Biosciences (Lincoln, NE, USA).

[2] = system: mRNA expression of pro-inflammatory cytokines in colon tissue of DSS mice; assay: Real-time PCR, cytokine mRNA in DSS-induced colitis; type: in vivo, mouse; details: H-TL1 1 mg/kg; DSS induced 1.73- to 41-fold increases; n = 3
Experimental: Total RNA was extracted from colon tissue specimens or cells using Trizol reagent (Takara) according to the manufacturer’s instructions and was then reverse transcribed using random primers. Real-time PCR was performed on a StepOne Real-Time PCR System (Applied Biosystems, Foster City, CA, USA) to analyze the mRNA expression levels of IL-8, TNF-α, IL-1β, IL-6, VCAM-1, and ICAM-1. The relative fold changes of target gene expression were comparatively quantified by the 2^−ΔΔCt method. GAPDH was chosen as the internal control gene, and samples without treatment were designated as the comparing reference. Primers used in this study were based on published sequences.
To induce colitis, 6–8 week old male BALB/c mice were administered 2.5% DSS solution in their drinking water for 7–8 consecutive days, ad libitum. Importantly, 30–40 kDa DSS was used to establish the animal model in this study because it is known to induce more severe colitis than 5 and 500 kDa DSS [37]. The mice were concomitantly administered H-TL1 (0.5 or 1 mg/kg) once daily for 7–8 consecutive days by intraperitoneal injection. Establishment of the DSS-induced colitis was evidenced by an increase in DAI, with associated weight loss, loose stool consistency, and presence of blood in the feces. DAI was monitored during the entire experiment and was assessed according to the method described in Table 1.

TNF-α/TNFR1 = assay: Competitive ELISA, inhibition of TNF-α binding to TNFR1; parameters: species or system human; details: hrTNF-α 20 ng/mL, 1 h, 37 °C, n = 3
Source text: We investigated whether H-TL1 has an inhibitory effect on the binding of TNF-α to TNFRs by using ELISA. In this assay, a fixed amount of TNF-α was mixed with different concentrations of H-TL1 and applied to the TNFR-coated ELISA plates. […] SPR analysis was used to further confirm the inhibitory effects of H-TL1 on the binding of TNF-α to TNFR1. As expected, TNF-α was strongly bound with the chip-immobilized TNFR1.
The T7Select1-2b display vector, T7 select primers, blocking reagent, and elution buffer were purchased from Novagen (Merck, Kenilworth, NJ, USA). […] DSS (36–50 kDa) was bought from MP Biomedicals (Solon, OH, USA). MTT, actinomycin D, and LPS were purchased from Sigma-Aldrich (St. Louis, MO, USA).
ELISA plates were coated with sTNFR1 (100 ng/well in 100 μL of 100 mM sodium carbonate, pH 9.6) for 20 h at 4 °C, followed by blocking with phosphate buffered saline (PBS) containing 0.2% Tween-20 (PBST) and 1% BSA for 1 h at 37 °C. Different concentrations of H-TL1 (0–1 μM) were mixed with hrTNF-α (20 ng/mL) in PBS containing 1% BSA, and 100 μL/well was placed in the ELISA plates and incubated for 1 h at 37 °C. After washing with PBST, an HRP-labeled monoclonal antibody against TNF-α was added, followed by incubation at 37 °C for 1 h. The plates were then washed, incubated with o-phenylenediamine, and the absorbance was subsequently measured at 450 nm.

ATSKPSLKC-OH [H-TL1]
concentration inhibiting TNF-α-mediated ERK (Thr202/Tyr204) phosphorylation [1]: 0.8 to 1.6 µM
concentration inhibiting TNF-α-mediated p38 (Thr180/Tyr182) phosphorylation [1]: 0.8 to 1.6 µM
concentration suppressing TNF-α-mediated IκB (Ser32/36) phosphorylation [1]: 0.4 to 1.6 µM
concentration suppressing TNF-α-mediated JNK (Thr183/Tyr185) phosphorylation [1]: 0.4 to 1.6 µM
mRNA expression of TNF-α, IFN-γ, IL-1β, and IL-6 in DSS colitis [2]: significantly reduced these effects
inhibition of the binding of TNF-α with TNFR1 (TNF-α/TNFR1; H-TL1 1 μM, plate coated with sTNFR1 100 ng/well, PBS + 1% BSA, absorbance 450 nm): ~60%
inhibition of TNF-α/TNFR1 binding, concentration dependence (TNF-α/TNFR1; H-TL1 0.1–1000 nM): obviously inhibits the binding of TNF-α with TNFR1; also recorded: inhibited the binding of TNF-α with TNFR1 in a concentration-dependent manner
